# According to patent publication US12269804B2, “Quinoxalinone compounds, compositions, methods, and kits for increasing genome editing efficiency” (VERTEX PHARMACEUTICALS INCORPORATED, priority 2018, dated 2025):
# pEC50, pIC50: −log10 of the molar value. Read-outs that look alike come from different tables or passages of the source.
# What was measured:
# Format in all cases: cell-based, human
# [1] = system: Bronchial Epithelial Cells (BECs), AAVS1; experiment: HDR rates in BECs, gene editing components delivered by lipid-mediated transfection (AAVS1); details: AAVS1, lipid-based transfection, 72 hs after transfection
# Procedure: (§1) Bronchial Epithelial Cells (BECs) were derived from human donors diagnosed with Cystic Fibrosis with a CFTR dF508/dF508 genotype.
# One day prior to transfection, BECs were seeded in a 96-well plate at a cell density of 1×E4 cells per well in BECs culture media. First, 0.15 μl of MessengerMax (ThermoFisher, LMRNA 003) was diluted into 5 μl of Opti-MEM and incubated for 10 min at room temperature. Meanwhile, 80 ng of Cas9 mRNA (Trilink, L-7206), 20 ng of sgRNA (Synthego) and 1 picomol of ssODN were added to 5 μl of Opti-MEM and then mixed with MessengerMAx solution. The mixture was incubated for 5 min prior to addition to the cells. The entire solution was added to the cells in a well of 96-well plate with 100 μl of culture media with or without DNA-PK inhibitors. Cells were incubated at 37° C. for in a 5% CO2 incubator. […]
# (§2) Each sequence chromatogram was analyzed using TIDE (Tracking of Indels by Decomposition) software (http://tide.nki.nl) (See also Brinkman et al., Nucleic Acids Research, Volume 42, Issue 22, 16 Dec. 2014, Pages e168). […] NHEJ Rates were calculated as Total Indel rate—HDR rate. […]
# To investigate the effects of lipid-mediated transfection, BEC were transfected with spCAS9 mRNA, AAVS1 sgRNA and AAVS1 PAM ssODN and then incubated with different concentration of Compound 1 or left untreated (Control). Gene editing rates were determined by using TIDE assay 72 hs after transfection.
# [2] = system: CD34+ cells, AAVS1; experiment: HDR gene editing in CD34+ cells at AAVS1 (Summary Table); details: for pEC50: Homo sapiens
# Procedure: (§3) Primary human mobilized peripheral blood (mPB) CD34^+ hematopoietic stem and progenitor cells (HSPCs) were purchased from Hemacare or AllCells. Cells were thawed, washed and resuspended in complete medium comprised of serum free medium CellGro SCGM (CellGenix) and supplemented with cytokine mix (300 ng/mL SCF, 300 ng/mL Flt3L, 100 ng/mL TPO, 60 ng/ml IL-3) at a density of 1-3×10^5 cells per mL and incubated at 37° C./5% CO2 incubator for 48 hours prior to electroporation.
# (§4) CD34+ cells were electroporated two days post thaw. The following conditions were used for electroporation: 2.0×E6 cells, 15 μg Cas9 protein (Feldan), 15 μg sgRNA, 1 μM of ssODN in 100 μl of P3 electroporation buffer using program CA-137. Electroporated cells were transferred by equally dividing them into eight wells of a 24-well plate, each well containing various concentrations of DNA-PK inhibitors. Cells were incubated at 37° C. in a 5% CO2 incubator for two days and evaluated for cell viability and gene editing.
# (§5) Genomic DNA was isolated by incubating cells with 50 μl DNA Quickextract solution (Epicentre) per well of 96 well plate for 30 min at 37° C. Cellular extract was mixed and transferred into a PCR plate and then incubated for 6 min at 65° C. and 2 min at 98° C. PCR reactions were carried out with 1 μl of Genomic DNA containing solution by using AccuPrime™ Pfx DNA Polymerase (Thermofisher, 12344024). PCR conditions were 4 min at 94° C. (1×), followed by 15 s at 94° C., 15 s at 60° C. and 1 min at […] (40×). The PCR products were purified and then Sanger sequenced by GENEWIZ. The following primer pairs spanning the target site were used for PCR (FW, forward; RV, reverse). Primers used by Sanger Sequencing are indicated by an asterisk (*): […]
# (§6) Each sequence chromatogram was analyzed using TIDE (Tracking of Indels by Decomposition) software (http://tide.nki.nl) (See also Brinkman et al., Nucleic Acids Research, Volume 42, Issue 22, 16 Dec. 2014, Pages e168). Mock-electroporated samples were used as the reference sequence, and parameters were set to an indel size of 30 nt, and the decomposition window was set to cover the largest possible window with high-quality traces. Total indel (insertion and deletions) rates were obtained directly from TIDE plots. HDR rates were the percentage of events with an insertion of 10 Nucleotides. NHEJ Rates were calculated as Total Indel rate—HDR rate. GraphPad Prism 7 software was used to make Graphs and to calculate the all Statistical information.
# [3] = system: Bronchial Epithelial Cells (BECs), NAV1.7; experiment: Gene editing rates (TIDE assay) in BECs electroporated with spCAS9 mRNA, NAV1.7 sgRNA and NAV1.7 Non-PAM ssODN
# Procedure: as §1
# (§7) For BECs, the following conditions were used for electroporation: 1.8×E5 Cells, 250 ng of CAS9 mRNA, 500 ng of sgRNA and 0.66 μM of ssODN in 20 μl of P4 Electroporation buffer by using program CM-138. The electroporated cells were transferred to a 96 well plate containing 100 μl of BEC culture media supplemented with DNA-PK inhibitors or left untreated. Cells were incubated at 37° C. in a 5% CO2 incubator.
# as §5, §6
# (§8) FIG. 1 illustrates the design of the gene editing assays used in the examples below. To investigate the effect of DNA-PK inhibitors on HDR gene editing rates, BECs were electroporated with spCAS9 mRNA, NAV1.7 sgRNA and NAV1.7 Non-PAM ssODN and then incubated with different concentrations Compound 1 or left untreated (Control). Gene editing rates were determined by using TIDE assay 72 hs after electroporation. Gene editing rates were expressed in percentages and classified as HDR and NHEJ. Cell survival rates are shown in percentages where control cells were set as 100%.
# [4] = system: mPB CD34+ cells, NAV1.7; experiment: Gene editing rates (TIDE assay) in mPB CD34+ cells electroporated with RNP (spCAS9 protein+NAV1.7 sgRNA) and NAV1.7 Non-PAM ssODN; details: for pEC50: Homo sapiens
# Procedure: as §3, §4, §5, §6
# To investigate the effect of DNA-PK inhibitors on HDR gene editing rates, mPB CD34+ cells were electroporated with RNP (spCAS9 protein+NAV1.7 sgRNA) and NAV1.7 Non-PAM ssODN. Cells were then incubated with various concentrations of Compound 1. Gene editing rates were determined by using TIDE assay 48 h after electroporation. Gene editing rates were expressed in percentages and classified as HDR and NHEJ as shown in FIG. 3A (Donor B) and FIG. 3B (Donor C. Cell survival rates are shown in percentages where control cells were set as 100%.
# [5] = system: Induced Pluripotent Stem Cells (iPSCs), AAVS1; experiment: Gene editing rates (TIDE assay) in iPSCs electroporated with spCAS9 mRNA, AAVS1 sgRNA and AAVS1 PAM ssODN
# Procedure: Induced Pluripotent Stem Cells (iPSCs) were derived from Human dermal fibroblasts after viral transduction with Yamanaka's reprogramming factors, Oct4, Sox2, KLF4 and c-Myc. Derived iPSCs were able to differentiate into 3 germ layers and contained a normal karyotype with 23 pairs of Chromosomes.
# For iPSCs the following conditions were used: 2.0×E5 Cells, 250 ng of CAS9 mRNA, 500 ng of sgRNA and 0.66 μM of ssODN in 20 μl of P3 Electroporation buffer by using program CA-137. The electroporated cells were transferred to a 96 well plate containing 100 μl of mTEsR1 media (Stem Cell Technologies) supplemented with 10 μM ROCK Inhibitor Y-27632 (Stem Cell Technologies) with or without DNA-PK inhibitors and then incubated at 37° C. in a 5% CO2 incubator.
# as §5, §6
# as §8, with “To” for “FIG. 1 illustrates the design of the gene editing assays used in the examples below. To”, “iPSCs” for “BECs”, “AAVS1” for “NAV1.7”, “AAVS1 PAM” for “NAV1.7 Non-PAM”, “concentrations of” for “concentrations”
# [6] = system: Bronchial Epithelial Cells (BECs), AAVS1; experiment: Gene editing rates (TIDE assay) in BECs electroporated with spCAS9 mRNA, AAVS1 sgRNA and AAVS1 PAM ssODN
# Procedure: as §1, §7
# as §5, with “reverse).” for “reverse). Primers used by Sanger Sequencing are indicated by an asterisk (*):”
# as §2
# To investigate the gene editing kinetics at EC max, BECs were electroporated with spCAS9 mRNA, AAVS1 sgRNA and AAVS1 PAM ssODN and then incubated at different times with 10 μM Compound 1 or left untreated (Control). Gene editing rates were determined by using TIDE assay and expressed in percentages of HDR and NHEJ. […]
# BECs were electroporated with spCAS9 mRNA, AAVS1 sgRNA and AAVS1 PAM ssODN and then incubated at different times with 0.7 μM Compound 1 or left untreated (Control). Gene editing rates were determined by using TIDE assay and expressed in percentages of HDR and NHEJ. […]
smiles,measurement,setting,value
"Cn1c(=O)cnc2cc(N3CCOCC3)cc(O[C@H]3CC[C@@H](Nc4ncccn4)CC3)c21 [Compound 1, 1-methyl-6-morpholino-8-(((1,4-cis)-4-(pyrimidin-2-ylamino)cyclohexyl)oxy)quinoxalin-2(1H)-one]",HDR efficiency rates,[1],increasing HDR efficiency rates with increasing concentrations
same,HDR Max %,[2]; Donor A,76%
same,HDR Max %,[2]; Donor C,88%
same,pEC50,[2]; Donor A,6.92
same,pEC50,[2]; Donor C,6.74
same,pEC50,"[3]; Homo sapiens, Epithelial cell, NAV1.7, TIDE assay 72 hs after electroporation, read-out: HDR EC50",6.35
same,pIC50,"[3]; Homo sapiens, Epithelial cell, NAV1.7, TIDE assay 72 hs after electroporation, read-out: NHEJ IC50",6.35
same,pEC50,"[3]; Homo sapiens, Epithelial cell, NaV1.7, read-out: HDR EC50",6.14
same,HDR TOP %,"[3]; NAV1.7, TIDE assay 72 hs after electroporation",69.37%
same,HDR Max %,[3]; NaV1.7,69%
same,HDR Max %,"[4]; CD34+, Donor A, NaV1.7",82%
same,HDR Max %,"[4]; CD34+, Donor B, NaV1.7",86%
same,HDR Max %,"[4]; CD34+, Donor C, NaV1.7",67%
same,pEC50,"[4]; 48 h, CD34+ cells, Donor B, NAV1.7, 48 h after electroporation, read-out: EC50 of HDR",6.54
same,pEC50,"[4]; 48 h, CD34+ cells, Donor B, NAV1.7, 48 h after electroporation, read-out: EC50 of Indel formation",6.46
same,pEC50,"[4]; CD34+, Donor A, NaV1.7, read-out: HDR EC50",6.41
same,pEC50,"[4]; CD34+, Donor B, NaV1.7, read-out: HDR EC50",6.54
same,pEC50,"[4]; CD34+, Donor C, NaV1.7, read-out: HDR EC50",6.96
same,HDR Max %,[5]; AAVS1,24%
same,HDR TOP %,"[5]; AAVS1, TIDE assay 72 hs after electroporation",24.41%
same,pEC50,"[5]; Homo sapiens, iPSC, AAVS1, TIDE assay 72 hs after electroporation, read-out: HDR EC50",6.49
same,pIC50,"[5]; Homo sapiens, iPSC, AAVS1, TIDE assay 72 hs after electroporation, read-out: NHEJ IC50",6.32
same,pEC50,"[5]; Homo sapiens, iPSC, AAVS1, read-out: HDR EC50",6.48
same,HDR Max %,[6],66%
same,Maximum Enhance Concentration (ECmax),[6],10 µM
same,pEC50,"[6]; Homo sapiens, Epithelial cell, read-out: Enhance Concentration 50 (EC50)",6.15
